SMILES strings stand for the structures.

The experiment relates to Fcγ receptor signaling. Description: Reverse Passive Arthus model. The class given is in vivo. The note with it: Rattus norvegicus, single dose 10 mg/kg. Here is the method:
Acute in vivo measurement of Fcγ receptor signaling inhibition of the compounds is measured using the:
Reverse Passive Arthus Model
On day 0 OVA was made up at a concentration of 17 mg/mL, in PBS by rocking gently until a solution was formed. 2% Evans Blue solution (Sigma Aldrich, cat# E2129) was then added to double the volume for a final concentration of 8.5 mg/mL of OVA and 1% Evans Blue dye. Anti-OVA antibody (Abazyme), stock concentration 10 mg/mL, was thawed and a 4 mg/mL solution was made with PBS. Compounds were made up in 0.5% HPMC with 0.02% Tween 80, and vortexed for about 15 seconds followed by homogenization for a minimum of about 2 min at 28,000 RPM until there was a fine particulate suspension with no clumps of compound. Rats were weighed and dosed with compound at a pre-determined time based on compound Tmax determined in pharmacokinetic studies. Animals were then placed under general anesthesia with a 5% isoflourane and oxygen mixture and shaved. Using a 0.5 cc insulin syringe two sites were injected i.d., 1 site with 100 μL of 4.0 mg/mL of anti-OVA antibody, and 1 site with 100 μL of sterile PBS. Each injection site was circled with a permanent marker to mark the site. Immediately following i.d. injections, animals were injected with 200 μL of the OVA (10 mg/kg)/1% Evans Blue mixture, i.v., using a 0.5 cc insulin syringe. About 4 h post injection animals were euthanized, bled via cardiac puncture and blood was put into plasma separation tubes. Blood samples were stored on ice until centrifugation (within about 2 h of collection). Each injection site was removed with a disposable biopsy punch (Acuderm Acu-Punch Disposable 12 mm), cut into four pieces and placed in a pre-labeled 2 mL eppendorf tube. One mL of DMF (99%) was added to each biopsy tube and they were placed in a heat block at about 50° C. for about 24 h. After incubation, 100 μL of each sample was transferred to a 96 well flat bottom plate and read at 620 nm on a plate reader using the Softmax software. Background was removed by subtracting the OD from the PBS injected site from the OD of the anti-OVA injected site for each individual animal. Plasma samples were spun down in a microcentrifuge (Eppendorf 5415R) for about 5 min at 16.1 rcf. 200 μL of plasma was placed in a 1.7 mL eppendorf tube for drug level measurements and tubes were stored at about −80° C. until evaluation.
The term inhibition in vivo denotes the change of the read-out against control, counted positive when it falls. `Clc1cc(Nc2nc(NC3CCC3)c3occc3n2)ccc1N1CCOCC1` [B.5.2]: the inhibition in vivo at 10 mg/kg came out at 55%.
To `Cn1ncc2cc(Nc3nc(NC4CC4)c4occc4n3)ccc21` [B.5.8] belongs 49%; to `FC(F)(F)CNc1nc(Nc2ccc(N3CCOCC3)c(Cl)c2)nc2ccoc12` [B.5.13], 17%; to `O=C1Nc2cc(Nc3nc(NC4CC4)c4occc4n3)ccc2OC1(F)F` [B.5.40], 3%.
To `CC1(C)Cc2ccc(Nc3nc(NC4CC4)c4occc4n3)cc2NC1=O` [B.5.41] belongs 42%; to `CC(C)(C#N)c1ccc(Nc2nc(NC3CC3)c3occc3n2)cc1` [B.5.42], 27%; to `O=c1[nH]c2cc(Nc3nc(NC4CC4)c4occc4n3)ccc2cc1CO` [B.5.50], 0%.
To `O=c1ccc2ccc(Nc3nc(NC4CC4)c4occc4n3)cc2o1` [B.5.52] belongs 0%; to `O=C1CCCc2cc(Nc3nc(NC4CC4)c4occc4n3)ccc2N1` [B.5.56], 49%; to `CC1(C)C(=O)Nc2cc(Nc3nc(N4CCC(CNCC(F)F)CC4)c4occc4n3)ccc21` [B.5.60], 10%.
Regarding `CC1(C)C(=O)Nc2cc(Nc3nc(N[C@@H]4[C@H](C(N)=O)[C@H]5C=C[C@@H]4C5)c4occc4n3)ccc21` [B.5.61], the inhibition in vivo at 10 mg/kg came out at 1%.
Under `CC1(C)Oc2ccc(Nc3nc(Nc4ccc5c(c4)NC(=O)C(C)(C)O5)c4occc4n3)cc2NC1=O` [B.5.62] stands 16%; under `CC1(C)Oc2ccc(Nc3nc(N4CCC(CNCCS(C)(=O)=O)CC4)c4occc4n3)cc2NC1=O` [B.5.65], 9%.
`CC1(C)C(=O)Nc2cc(Nc3nc(N4CCC(CNCCS(C)(=O)=O)CC4)c4occc4n3)ccc21` [B.5.68]: the inhibition in vivo at 10 mg/kg came to 1%.
Turning to `CC1(C)C(=O)Nc2cc(Nc3nc(N4CCC(CNCCF)CC4)c4occc4n3)ccc21` [B.5.77], the inhibition in vivo at 10 mg/kg was found to be 20%.
Under `CC(C)CNc1nc(Nc2ccc3c(c2)NC(=O)C3(C)C)nc2ccoc12` [B.5.80] stands 46%; under `CCCNc1nc(Nc2ccc3c(c2)NC(=O)C3(C)C)nc2ccoc12` [B.5.81], 16%; under `O=C1COc2ccc(Nc3nc(N4CCC(CNCC(F)F)CC4)c4occc4n3)cc2N1` [B.5.84], 38%.
As for `FC(F)CNCC1CCN(c2nc(Nc3ccc(N4CCOCC4)c(Cl)c3)nc3ccoc23)CC1` [B.5.85], the inhibition in vivo at 10 mg/kg came to 52%.
As for `Cc1cc2ccc(Nc3nc(NC4CC4)c4occc4n3)cc2[nH]c1=O` [B.5.99], the inhibition in vivo at 10 mg/kg came to 16%.
Under `CC1(C)C(=O)Nc2cc(Nc3nc(NC4CCC4)c4occc4n3)ccc21` [B.5.108] stands 56%.
As to `CNCC1CCN(c2nc(Nc3ccc(N4CCN(C(C)=O)CC4)cc3)nc3ccoc23)CC1` [C.1.2], the inhibition in vivo at 10 mg/kg is -17%.
To `CC(=O)N(C)c1ccc(Nc2nc(N3CCC(CN)CC3)c3occc3n2)cc1` [C.1.7] belongs 22%.
To `CCCC(=O)Nc1ccc(Nc2nc(N3CCC(CN)CC3)c3occc3n2)cc1` [C.1.8] belongs 0%.
Regarding `CNCC1CCN(c2nc(Nc3ccc4cn[nH]c4c3)nc3ccoc23)CC1` [C.1.23], the inhibition in vivo at 10 mg/kg was -15%.
To `Cc1n[nH]c2cc(Nc3nc(N4CCCC(N)CC4)c4occc4n3)ccc12` (stereo not shown) [C.1.29] belongs -5%; to `Cc1n[nH]c2cc(Nc3nc(N4CCC(C)(CN)CC4)c4occc4n3)ccc12` [C.1.31], 0%; to `CC1(CN)CCN(c2nc(Nc3ccc4c(c3)NC(=O)C4(C)C)nc3ccoc23)CC1` [C.1.32], 8%.
Under `CC1(CN)CCN(c2nc(Nc3ccc4c(c3)NC(=O)C(C)(C)O4)nc3ccoc23)CC1` [C.1.33] stands 30%; under `CC1(C)Oc2ccc(Nc3nc(N4CCC5(CCCNC5)C4)c4occc4n3)cc2NC1=O` (stereo not shown) [C.1.36], -31%; under `CC1(C)C(=O)Nc2cc(Nc3nc(N4CCC5(CCCNC5)CC4)c4occc4n3)ccc21` [C.1.37], -5%.
With `COc1cc(Nc2nc(N3CCC4(CCCNC4)CC3)c3occc3n2)ccc1N1CCOCC1` [C.1.39], the inhibition in vivo at 10 mg/kg turned out to be 44%.
On to `Cn1ncc2cc(Nc3nc(N4CCC5(CCNC5)CC4)c4occc4n3)ccc21` [C.1.40], for which the inhibition in vivo at 10 mg/kg is 40%.
For the compound `Clc1cc(Nc2nc(N3CCC4(CCCNC4)CC3)c3occc3n2)ccc1N1CCOCC1` [C.1.41], the inhibition in vivo at 10 mg/kg was determined as 40%.
`Cn1ncc2cc(Nc3nc(N4CCC5(CCCNC5)CC4)c4occc4n3)ccc21` [C.1.43]: the inhibition in vivo at 10 mg/kg stood at 56%.
Under `Clc1cc(Nc2nc(N3CCC4(CCNC4)CC3)c3occc3n2)ccc1N1CCOCC1` [C.1.44] stands 54%; under `CNCC1CCN(c2nc(Nc3ccc4c(C)n[nH]c4c3)nc3ccoc23)CC1` [C.1.48], 1%; under `CNCC1CCN(c2nc(Nc3ccc4c(cnn4C)c3)nc3ccoc23)CC1` [C.1.49], -20%.
To `CNCC1CCN(c2nc(Nc3ccc4c(c3)NC(=O)C4(C)C)nc3ccoc23)CC1` [C.1.51] belongs -7%; to `Cc1n[nH]c2cc(Nc3nc(N[C@@H]4[C@H](C(N)=O)[C@H]5C=C[C@@H]4C5)c4occc4n3)ccc12` [C.1.52], 8%.
Turning to `CNCC1CCN(c2nc(Nc3ccc(C(C)(C)C#N)cc3)nc3ccoc23)CC1` [C.1.57], the inhibition in vivo at 10 mg/kg turned out to be 12%.
To `CC1(C)Oc2ccc(Nc3nc(N4CCC5(CCNC5)CC4)c4occc4n3)cc2NC1=O` [C.1.58] belongs -18%.
Under `CC1(C)Oc2ccc(Nc3nc(N4CCC5(CCCNC5)CC4)c4occc4n3)cc2NC1=O` [C.1.59] stands 20%; under `Cc1n[nH]c2cc(Nc3nc(N4CCC(CNCCS(C)(=O)=O)CC4)c4occc4n3)ccc12` [C.1.60], 24%.
As to `NCC1CCN(c2nc(Nc3ccc4c(c3)NC(=O)CC4)nc3ccoc23)CC1` [C.1.61], the inhibition in vivo at 10 mg/kg is 20%.
For `CC(N)C1CCN(c2nc(Nc3ccc4c(c3)NC(=O)C(C)(C)O4)nc3ccoc23)CC1` (stereo not shown) [C.1.62], the inhibition in vivo at 10 mg/kg is -6%.
Under `CNCC1CCN(c2nc(Nc3ccc4c(c3)NC(=O)C(C)(C)S4)nc3ccoc23)CC1` [C.1.71] stands 85%; under `O=C(NC1CC1)c1n[nH]c2cc(Nc3nc(NC4CC4)c4occc4n3)ccc12` [E.2.1, N-Cyclopropyl-6-(4-(cyclopropylamino)furo[3,2-d]pyrimidin-2-ylamino)-1H-indazole-3-carboxamide], -1%; under `Cc1n[nH]c2cc(Nc3nc(NC4CC4)c4occc4n3)ccc12` [Example #3, N^4-Cyclopropyl-N^2-(3-methyl-1H-indazol-6-yl)furo[3,2-d]pyrimidine-2,4-diamine], 75%.
Turning to `CC1Cc2ccc(Nc3nc(NC4CC4)c4occc4n3)cc2NC1=O` (stereo not shown) [Example #6, 7-(4-(Cyclopropylamino)furo[3,2-d]pyrimidin-2-ylamino)-3-methyl-3,4-dihydroquinolin-2(1H)-one], the inhibition in vivo at 10 mg/kg stood at 59%.
To `O=C1CCc2ccc(Nc3nc(NC4CC4)c4occc4n3)cc2N1` [Example #7, 7-(4-(Cyclopropylamino)furo[3,2-d]pyrimidin-2-ylamino)-3,4-dihydroquinolin-2(1H)-one] belongs 73%; to `CC1(C)C(=O)Nc2cc(Nc3nc(NC4CC4)c4occc4n3)ccc21` [Example #11, 6-(4-(Cyclopropylamino)furo[3,2-d]pyrimidin-2-ylamino)-3,3-dimethylindolin-2-one], 65%.
As to `CC1(CN)CCN(c2nc(Nc3ccc4cn[nH]c4c3)nc3ccoc23)CC1` [Example #12, 4-(4-(Aminomethyl)-4-methylpiperidin-1-yl)-N-(1H-indazol-6-yl)furo[3,2-d]pyrimidin-2-amine], the inhibition in vivo at 10 mg/kg is 8%.
For `FC(F)(F)CNc1nc(Nc2ccc3cn[nH]c3c2)nc2ccoc12` [Example #13, N^2-(1H-Indazol-6-yl)-N^4-(2,2,2-trifluoroethyl)furo[3,2-d]pyrimidine-2,4-diamine], the inhibition in vivo at 10 mg/kg worked out at 70%.
Under `c1cc2nc(Nc3ccc4cn[nH]c4c3)nc(NC3CC3)c2o1` [Example #15, N^4-Cyclopropyl-N^2-(1H-indazol-6-yl)furo[3,2-d]pyrimidine-2,4-diamine] stands 45%.

(Values after patent US8551981B2, “Furo[3,2-d]pyrimidine compounds” (AbbVie Inc., priority 2010, dated 2013).)
